Values of other authors as cited in article PMC8226449, “In Vitro Evaluation of the Squaramide-Conjugated Fibroblast Activation Protein Inhibitor-Based Agents AAZTA^5.SA.FAPi and DOTA.SA.FAPi” (Molecules, 2021).

Parameters: method as in PMID 32332144
Settings: reported in the literature; cited from earlier work

Structure (SMILES): N#C[C@@H]1CC(F)(F)CN1C(=O)CNC(=O)c1ccnc2ccc(OCCCN3CCN(C(=O)CN4CCN(CC(=O)O)CCN(CC(=O)O)CCN(CC(=O)O)CC4)CC3)cc12 (68Ga complex, metal not drawn) [FAPI-04]
- logD: −2.4 ± 0.28
